Experimental data reported in patent US9738655B2, “Tetrahydroisoquinolines containing substituted azoles as factor XIa inhibitors” (BRISTOL-MYERS SQUIBB COMPANY, priority 2013, dated 2017).
Where a name gives a salt, the structure may show the parent alone. Read-outs that look alike come from different tables or passages of the source.

Columns and labels:
[1] = biological target: purified human Factor XIa (Homo sapiens (Human), UniProt P03951); assay: Factor XIa enzyme inhibition assay (chromogenic substrate S-2366)
[2] = biological target: purified human plasma kallikrein (Homo sapiens (Human), UniProt P03952); assay: Plasma kallikrein enzyme inhibition assay (chromogenic substrate S-2302); assay type: biochemical
[3] = read-out: Factor XIa Ki, measured at 25° C.
[4] = measured at 25° C. (no asterisk)

Sequence of purified human plasma kallikrein (P03952 391-638): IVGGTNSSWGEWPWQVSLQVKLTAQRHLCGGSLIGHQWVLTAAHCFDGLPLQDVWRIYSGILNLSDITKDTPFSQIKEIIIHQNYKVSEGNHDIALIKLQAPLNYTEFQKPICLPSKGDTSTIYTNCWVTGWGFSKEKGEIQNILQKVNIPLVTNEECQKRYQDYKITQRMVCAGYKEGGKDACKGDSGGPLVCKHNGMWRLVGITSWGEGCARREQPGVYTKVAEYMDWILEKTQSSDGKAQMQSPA
Sequence of purified human plasma kallikrein (P03952 20-390 partner): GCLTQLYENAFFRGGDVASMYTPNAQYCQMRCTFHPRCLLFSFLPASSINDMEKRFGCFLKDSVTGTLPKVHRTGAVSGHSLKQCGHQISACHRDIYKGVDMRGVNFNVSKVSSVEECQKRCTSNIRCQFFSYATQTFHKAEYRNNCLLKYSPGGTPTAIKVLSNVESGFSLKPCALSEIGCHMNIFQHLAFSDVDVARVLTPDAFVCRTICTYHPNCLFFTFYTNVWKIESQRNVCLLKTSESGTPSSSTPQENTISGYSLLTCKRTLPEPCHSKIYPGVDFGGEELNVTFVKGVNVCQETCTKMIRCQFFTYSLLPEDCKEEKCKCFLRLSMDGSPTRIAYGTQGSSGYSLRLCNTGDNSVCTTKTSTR
Sequence of purified human Factor XIa (P03951 388-625): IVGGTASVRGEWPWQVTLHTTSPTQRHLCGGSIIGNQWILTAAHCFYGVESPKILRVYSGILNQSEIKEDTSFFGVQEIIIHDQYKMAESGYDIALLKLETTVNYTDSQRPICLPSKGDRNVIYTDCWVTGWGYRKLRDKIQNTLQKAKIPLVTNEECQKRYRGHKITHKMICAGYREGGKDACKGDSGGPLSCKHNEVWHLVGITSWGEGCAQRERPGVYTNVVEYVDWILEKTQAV
Sequence of purified human Factor XIa (P03951 19-387 partner): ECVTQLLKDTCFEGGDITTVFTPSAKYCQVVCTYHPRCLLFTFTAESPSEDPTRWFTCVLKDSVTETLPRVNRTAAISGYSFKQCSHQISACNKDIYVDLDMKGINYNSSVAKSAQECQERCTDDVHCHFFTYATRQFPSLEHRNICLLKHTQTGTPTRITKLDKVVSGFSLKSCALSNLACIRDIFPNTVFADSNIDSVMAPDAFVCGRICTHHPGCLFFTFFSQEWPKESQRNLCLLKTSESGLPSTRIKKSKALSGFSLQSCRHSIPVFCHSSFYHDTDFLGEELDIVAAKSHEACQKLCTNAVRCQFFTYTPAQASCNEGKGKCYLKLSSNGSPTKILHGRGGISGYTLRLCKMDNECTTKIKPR

CN(C)C1CCN(c2cccc3c2CCN(C(=O)c2cn(-c4cccc(Cl)c4F)nn2)C3C(=O)Nc2ccc(-c3nnn[nH]3)cc2)CC1 (centres unmarked) [Example 105, N-(4-(1H-Tetrazol-5-yl)phenyl)-2-(1-(3-chloro-2-fluorophenyl)-1H-1,2,3-triazole-4-carbonyl)-5-(4-(dimethylamino)piperidin-1-yl)-1,2,3,4-tetrahydroisoquinoline-1-carboxamide, bis-TFA salt]
Ki [1, 3]: < 5 nM
Ki [2, 4]: 1.69 nM

CNC(=O)c1ccc(-c2cccc3c2CCN(C(=O)c2cn(-c4cccc(Cl)c4F)nn2)[C@@H]3C(=O)Nc2ccc(C(=O)O)cc2)cn1 [Example 44, (S)-4-(2-(1-(3-Chloro-2-fluorophenyl)-1H-1,2,3-triazole-4-carbonyl)-5-(6-(methylcarbamoyl)pyridin-3-yl)-1,2,3,4-tetrahydroisoquinoline-1-carboxamido)benzoic acid, TFA salt]
Ki [1, 3]: < 5 nM
Ki [2, 4]: 3.28 nM

COC1CCN(c2cccc3c2CCN(C(=O)N2CCCC(c4cccc(Cl)c4F)C2)C3C(=O)Nc2ccc(C(=O)O)cc2)CC1 (centres unmarked) [Example 326, 4-(2-(3-(3-Chloro-2-fluorophenyl)piperidine-1-carbonyl)-5-(4-methoxypiperidin-1-yl)-1,2,3,4-tetrahydroisoquinoline-1-carboxamido)benzoic acid, TFA salt]
Ki [1]: 330 nM
Ki ([2]; measured at 37° C. (*)): > 2000 nM

CN1CCN(c2cccc3c2CCN(C(=O)c2cn(-c4cccc(Cl)c4)nn2)C3C(=O)Nc2ccc(C(=O)O)cc2)CC1 (centres unmarked) [Example 201, 4-(2-(1-(3-chlorophenyl)-1H-1,2,3-triazole-4-carbonyl)-5-(4-methylpiperazin-1-yl)-1,2,3,4-tetrahydroisoquinoline-1-carboxamido)benzoic acid, 2 TFA salt]
Ki [1, 3]: 9.88 nM
Ki [2, 4]: 4.21 nM

O=C(Nc1ccc(-c2ncc[nH]2)cc1)[C@@H]1c2cccc(-c3cncnc3)c2CCN1C(=O)c1cn(-c2cccc(Cl)c2F)nn1 [Example 138, (S)-N-(4-(1H-Imidazol-2-yl)phenyl)-2-(1-(3-chloro-2-fluorophenyl)-1H-1,2,3-triazole-4-carbonyl)-5-(pyrimidin-5-yl)-1,2,3,4-tetrahydroisoquinoline-1-carboxamide, TFA salt]
Ki [1, 3]: < 5 nM
Ki ([2]; measured at 37° C. (*)): 25.9 nM

Cc1c(C(=O)N2CCc3c(-c4ccc(C(=O)NCCN(C)C)cc4)cccc3C2C(=O)Nc2ccc(C(=O)O)cc2)nnn1-c1cccc(Cl)c1F (centres unmarked) [Example 7, 4-(2-(1-(3-Chloro-2-fluorophenyl)-5-methyl-1H-1,2,3-triazole-4-carbonyl)-5-(4-((2-(dimethylamino)ethyl)carbamoyl)phenyl)-1,2,3,4-tetrahydroisoquinoline-1-carboxamido)benzoic acid, TFA salt]
Ki [1, 3]: < 5 nM
Ki [2, 4]: 29.9 nM

CN(C)Cc1ccc(-c2cccc3c2CCN(C(=O)c2cn(-c4cccc(Cl)c4F)nn2)C3C(=O)Nc2ccc(C(=O)O)cc2)cc1 (centres unmarked) [Example 154, 4-(2-(1-(3-chloro-2-fluorophenyl)-1H-1,2,3-triazole-4-carbonyl)-5-(4-((dimethylamino)methyl)phenyl)-1,2,3,4-tetrahydroisoquinoline-1-carboxamido)benzoic acid, TFA salt]
Ki [1, 3]: < 5 nM
Ki [2, 4]: 5.26 nM

CN(C)C(=O)C1CCN(c2cccc3c2CCN(C(=O)c2cnn(-c4cccc(Cl)c4F)c2N)C3C(=O)Nc2ccc(C(=O)O)cc2)CC1 (centres unmarked) [Example 317, 4-(2-(5-Amino-1-(3-chloro-2-fluorophenyl)-1H-pyrazole-4-carbonyl)-5-(4-(dimethylcarbamoyl)piperidin-1-yl)-1,2,3,4-tetrahydroisoquinoline-1-carboxamido)benzoic acid, TFA salt]
Ki [1, 3]: < 5 nM
Ki [2, 4]: 41.1 nM

CN1CCN(c2cccc3c2CCN(C(=O)C2CC(c4cccc(Cl)c4F)=NO2)C3C(=O)Nc2ccc(C(=O)O)cc2)CC1=O (single isomer, unassigned) [Example 282, 4-(2-(3-(3-chloro-2-fluorophenyl)-4,5-dihydroisoxazole-5-carbonyl)-5-(4-methyl-3-oxopiperazin-1-yl)-1,2,3,4-tetrahydroisoquinoline-1-carboxamido)benzoic acid, TFA salt]
Ki ([1]; read-out: Factor XIa Ki, measured at 25° C., TFA salt): < 5 nM
Ki ([2]; measured at 25° C. (no asterisk), TFA salt): 1.87 nM

CN1CCN(c2cccc3c2CCN(C(=O)c2cnn(-c4cccc(Cl)c4F)c2N)C3C(=O)Nc2ccc(C(=O)O)cc2)CC1=O (centres unmarked) [Example 318, 4-(2-(5-Amino-1-(3-chloro-2-fluorophenyl)-1H-pyrazole-4-carbonyl)-5-(4-methyl-3-oxopiperazin-1-yl)-1,2,3,4-tetrahydroisoquinoline-1-carboxamido)benzoic acid, TFA salt]
Ki [1, 3]: < 5 nM
Ki [2, 4]: 21.1 nM
